Results from PMC13086964, “USP7 deubiquitinase stabilizes FAN1 to support DNA crosslink repair and suppress CAG repeat expansion” (Nature Communications, 2026).
Where a SMILES comes first, the peptide text is derived from it. The star is where a group is joined. Cbz = O=C(OCc1ccccc1)*

How the values were obtained:
GFP-FAN1 = assay: cycloheximide chase, FAN1 protein half-life; type: cell-based, human; settings: U2OS eGFP-FAN1 cells, CHX 100 μg/ml, n = 3
Experimental: If not stated otherwise, cells were lysed in RIPA buffer (50 mM Tris-HCl, pH 7.5, 150 mM NaCl, 1% IGEPAL, 0.5% sodium deoxycholate, 0.1% SDS) supplemented with phosphatase inhibitors (20 mM NaF and 1 mM Na3VO4) and protease inhibitors (1 mM benzamidine and 0.1 mM PMSF), incubated with Benzonase (Merck) for at least 30 min at 4 °C, and clarified by centrifugation. Proteins were resolved by SDS-PAGE and transferred to nitrocellulose membranes. Immunoblots were performed with the indicated antibodies, and proteins were visualized using the Advansta WesternBright ECL reagent and the Fusion Solo S imaging system. Relative protein levels were determined by quantification of the protein of interest band intensity normalized to the loading control with the ImageJ software. […]
were determined by quantification of FAN1 band intensity (normalized to α-Tubulin) with the ImageJ software. […] 24 h post induction, cells were either mock-treated or treated with CHX (100 μg/ml) for the indicated time points and whole-cell lysates were analysed by immunoblotting (top panel). Relative GFP-FAN1 protein levels were determined by quantification of GFP-FAN1 band intensity (normalized to GAPDH) with the ImageJ software (bottom panel; siCtrl: black square; siUSP7#1: blue triangle; siUSP7#2: cyan inverted triangle). […] Inputs and recovered protein complexes were analysed by immunoblotting. […]

FAN1 protein level = assay: immunoblot of FAN1 protein levels, RPE-1 cells; type: cell-based, human; settings: USP7-depleted RPE-1 cells, MG-132 10 μM for 6 h
Experimental: (§1) Fig. 3 USP7 deubiquitinates FAN1 controlling its protein levels. A RPE-1 parental and p53 KO cell lines were transfected with either non-targeting (Ctrl) or USP7 siRNA oligos. 48 h later, whole-cell lysates were analysed by immunoblotting. B Doxycycline-inducible U2OS^eGFP-FAN1 cells were transfected with either non-targeting (Ctrl) or USP7 siRNA oligos. 24 h later, GFP-FAN1 expression was induced with Dox (100 ng/ml) for 24 h and whole-cell lysates were analysed by immunoblotting. C Same cells as in B were induced with Dox (100 ng/ml). 24 h later, cells were either mock-treated with DMSO (–) or treated (+) with either FT671 or GNE-6640 (10 μM) for 24 h and whole-cell lysates were analysed by immunoblotting. D Same cells as in B were transfected with either non-targeting (Ctrl) or USP7 siRNA oligos. […] 24 h post induction, cells were either mock-treated (−) or treated (+) with MG-132 (10 μM) for 6 h and whole-cell lysates were analysed by immunoblotting. […] 24 h post induction, whole-cell lysates were analysed by immunoblotting. […] Inputs and recovered protein complexes were analysed by immunoblotting. […] Inputs and recovered protein complexes were analysed by immunoblotting. […] In (A–E), relative FAN1 protein levels were determined by quantification of FAN1 band intensity (normalized to GAPDH or Lamin B1 loading controls) with the ImageJ software. […]

GFP-FAN1 protein level = assay: immunoblot of GFP-FAN1 protein levels, U2OS eGFP-FAN1 cells; type: cell-based, human; settings: USP7-depleted U2OS eGFP-FAN1 cells, MG-132 10 μM for 6 h
Experimental: as §1

FAN1 = assay: pull-down of MBP-His-FAN1 by biotin-tagged USP7 fragments; type: binding, human; settings: biotin-tagged USP7 fragments 6 µg, MBP-His-FAN1 1 µg
Experimental: All plasmids were transformed into BL21(DE3)-pBirAcm cells. The cells were grown using a Large-scale EXpression (LEX) bioreactor at 37 °C. Once OD600 reached 0.7, the temperature was reduced to 15 °C. At OD600 0.8-1, expression of biotinylated proteins was induced by adding 25 mg/L biotin and 0.5 mM isopropyl β-d-1-thiogalactopyranoside (IPTG), and growth continued overnight. Cell cultures were harvested by centrifugation at 6500 g, 10 min, 10 °C (JLA8.1000). Pellets were flash-frozen in liquid nitrogen and stored at −80 °C prior to purification. Cell pellets were thawed, diluted with pre-chilled resuspension buffer (20 mM HEPES pH7.4, 500 mM NaCl, 5% (v/v) glycerol, 1 mM TCEP) and supplemented with 3 μg/ml benzonase, 2 mM MgSO4 and 0.8 mM PMSF/benzamidine-HCl. The mixture was homogenized and lysed by sonication, 60 cycles of 5 s pulse followed by 7.5 s rest. Cell lysates were clarified by centrifugation at 40000 g, 1 hr, 10 °C (JLA16.250). […] Protein purity was analysed by SDS-PAGE and identity was confirmed by mass spectrometry. […]
Transformed clones of chemocompetent BL21 bacteria were picked and inoculated in LB medium supplemented with 50 μg/ml kanamycin, subsequently incubated at 37 °C overnight under agitation at 250 rpm. […] Purity of the protein was assessed by boiling in SDS sample buffer and separating by SDS-PAGE followed by staining using Coomassie Blue. […]

## C[C@@H]1C[C@@H]([C@H](O)CC2CC(=O)NC(=O)C2)C(=O)[C@@H](C)C1 [CHX, cycloheximide]
GFP-FAN1
  FAN1 protein half-life: reduced protein half-life

## CC(C)C[C@@H](C=O)NC(=O)[C@H](CC(C)C)NC(=O)[C@H](CC(C)C)NC(=O)OCc1ccccc1 [MG132] (Cbz-Leu-Leu-Leu-aldehyde)
FAN1 protein level
  FAN1 levels with proteasome inhibitor: FAN1 levels were restored
GFP-FAN1 protein level
  FAN1 levels with proteasome inhibitor: FAN1 levels were restored

## TRAF domain: purified recombinant biotin-tagged USP7 fragment
FAN1
  binding of USP7 domain to FAN1 in vitro: strongest
